ChEMBL document CHEMBL4715814, “Design, synthesis and biological activity evaluation of novel 4-subtituted 2-naphthamide derivatives as AcrB inhibitors” (2018)
Active and inactive are the calls of the source. The calls are words filed in the database; no cut-off is given here.

What was measured:
[1] = system: Cell membrane; assay: Induction of outer membrane permeabilization in wild type Escherichia coli BW25113 assessed as increase in nitrocefin hydrolysis at 512 ug/ml measured for 30 mins in presence of CCCP by spectrophotometry analysis; format: subcellular; conditions: dose 512.0 µg/ml
[2] = system: Cell membrane; assay: Disruption of inner membrane potential in wild type Escherichia coli BW25113 at 512 ug/ml preincubated for 10 mins followed by glucose stimulation and CCCP addition by DiOC2 probe based fluorimetric analysis; format: subcellular; conditions: dose 512.0 µg/ml
[3] = system: Escherichia coli; assay: Potentiation of rifampicin-induced antibacterial activity against wild type Escherichia coli BW25113 assessed as rifampicin MIC at 256 ug/ml incubated for 18 hrs under aerobic condition by checkerboard titration assay (reference value: 16 ug/ml); format: functional; conditions: dose 256 µg/ml
[4] = system: Escherichia coli; assay: Potentiation of TPP-induced antibacterial activity against wild type Escherichia coli BW25113 assessed as fold reduction in TPP MIC at 256 ug/ml incubated for 18 hrs under aerobic condition by checkerboard titration assay relative to TPP MIC alone; format: functional; conditions: dose 256 µg/ml
[5] = system: Escherichia coli; assay: Potentiation of TPP-induced antibacterial activity against AcrB deficient Escherichia coli BW25113 assessed as TPP MIC at 256 ug/ml incubated for 18 hrs under aerobic condition by checkerboard titration assay (reference value: 256 ug/ml); format: functional; conditions: dose 256 µg/ml
[6] = system: Escherichia coli; assay: Potentiation of rifampicin-induced antibacterial activity against wild type Escherichia coli BW25113 assessed as rifampicin MIC at 128 ug/ml incubated for 18 hrs under aerobic condition by checkerboard titration assay (reference value: 16 ug/ml); format: functional; conditions: dose 128 µg/ml
[7] = system: Escherichia coli; assay: Potentiation of chloramphenicol-induced antibacterial activity against wild type Escherichia coli BW25113 assessed as chloramphenicol MIC at 256 ug/ml incubated for 18 hrs under aerobic condition by checkerboard titration assay (reference value: 16 ug/ml); format: functional; conditions: dose 256 µg/ml
[8] = system: Escherichia coli; assay: Potentiation of chloramphenicol-induced antibacterial activity against AcrB deficient Escherichia coli BW25113 assessed as chloramphenicol MIC at 256 ug/ml incubated for 18 hrs under aerobic condition by checkerboard titration assay (reference value: 2 ug/ml); format: functional; conditions: dose 256 µg/ml
[9] = system: Escherichia coli; assay: Potentiation of chloramphenicol-induced antibacterial activity against wild type Escherichia coli BW25113 assessed as chloramphenicol MIC at 128 ug/ml incubated for 18 hrs under aerobic condition by checkerboard titration assay (reference value: 16 ug/ml); format: functional; conditions: dose 128 µg/ml
[10] = system: Escherichia coli; assay: Potentiation of erythromycin-induced antibacterial activity against wild type Escherichia coli BW25113 assessed as erythromycin MIC at 128 ug/ml incubated for 18 hrs under aerobic condition by checkerboard titration assay (reference value: 128 ug/ml); format: functional; conditions: dose 128 µg/ml
[11] = system: Escherichia coli; assay: Potentiation of TPP-induced antibacterial activity against wild type Escherichia coli BW25113 assessed as TPP MIC at 128 ug/ml incubated for 18 hrs under aerobic condition by checkerboard titration assay (reference value: 1024 ug/ml); format: functional; conditions: dose 128 µg/ml
[12] = system: Escherichia coli; assay: (§1) Antibacterial activity against Wild type Escherichia coli BW25113 assessed as inhibition of AcrB efflux pump by mesuring the glucose-induced nile red efflux at 500 uM preincubated with CCCP for 15 mins followed by compound addition after 15 mins nile red added and incubated for 3 hrs in shaker by fluorimetric analysis; format: functional, organism-based; conditions: time 195.0 min
[13] = system: Escherichia coli; assay: Potentiation of erythromycin-induced antibacterial activity against wild type Escherichia coli BW25113 assessed as erythromycin MIC at 256 ug/ml incubated for 18 hrs under aerobic condition by checkerboard titration assay (reference value: 128 ug/ml); format: functional; conditions: dose 256 µg/ml
[14] = system: Escherichia coli; assay: Potentiation of erythromycin-induced antibacterial activity against AcrB deficient Escherichia coli BW25113 assessed as erythromycin MIC at 256 ug/ml incubated for 18 hrs under aerobic condition by checkerboard titration assay (reference value: 32 ug/ml); format: functional; conditions: dose 256 µg/ml
[15] = system: Escherichia coli; assay: Potentiation of TPP-induced antibacterial activity against wild type Escherichia coli BW25113 assessed as TPP MIC at 256 ug/ml incubated for 18 hrs under aerobic condition by checkerboard titration assay (reference value: 1024 ug/ml); format: functional; conditions: dose 256 µg/ml
[16] = system: Escherichia coli; assay: Potentiation of TPP-induced antibacterial activity against wild type Escherichia coli BW25113 assessed as TPP MIC at 512 ug/ml incubated for 18 hrs under aerobic condition by checkerboard titration assay (reference value: 1024 ug/ml); format: functional; conditions: dose 512 µg/ml
[17] = system: Escherichia coli; assay: Potentiation of chloramphenicol-induced antibacterial activity against wild type Escherichia coli BW25113 assessed as fold reduction in chloramphenicol MIC at 512 ug/ml incubated for 18 hrs under aerobic condition by checkerboard titration assay relative to chloramphenicol MIC alone; format: functional; conditions: dose 512 µg/ml
[18] = system: Escherichia coli; assay: Potentiation of erythromycin-induced antibacterial activity against AcrB deficient Escherichia coli BW25113 assessed as erythromycin MIC at 512 ug/ml incubated for 18 hrs under aerobic condition by checkerboard titration assay (reference value: 32 ug/ml); format: functional; conditions: dose 512 µg/ml
[19] = system: Escherichia coli; assay: Potentiation of erythromycin-induced antibacterial activity against wild type Escherichia coli BW25113 assessed as erythromycin MIC at 512 ug/ml incubated for 18 hrs under aerobic condition by checkerboard titration assay (reference value: 128 ug/ml); format: functional; conditions: dose 512 µg/ml
[20] = system: Escherichia coli; assay: Potentiation of chloramphenicol-induced antibacterial activity against wild type Escherichia coli BW25113 assessed as chloramphenicol MIC at 512 ug/ml incubated for 18 hrs under aerobic condition by checkerboard titration assay (reference value: 16 ug/ml); format: functional; conditions: dose 512 µg/ml
[21] = system: Escherichia coli; assay: Potentiation of chloramphenicol-induced antibacterial activity against AcrB deficient Escherichia coli BW25113 assessed as chloramphenicol MIC at 512 ug/ml incubated for 18 hrs under aerobic condition by checkerboard titration assay (reference value: 2 ug/ml); format: functional; conditions: dose 512 µg/ml
[22] = system: Escherichia coli; assay: Potentiation of chloramphenicol-induced antibacterial activity against AcrB deficient Escherichia coli BW25113 assessed as chloramphenicol MIC at 128 ug/ml incubated for 18 hrs under aerobic condition by checkerboard titration assay (reference value: 2 ug/ml); format: functional; conditions: dose 128 µg/ml
[23] = system: Escherichia coli; assay: Antibacterial activity against wild type Escherichia coli BW25113 assessed as inhibition of bacterial growth at 256 ug/ml after 18 hrs by microtitre broth dilution assay; format: functional, organism-based; conditions: dose 256.0 µg/ml
[24] = system: Escherichia coli; assay: Potentiation of chloramphenicol-induced antibacterial activity against wild type Escherichia coli BW25113 assessed as fold reduction in chloramphenicol MIC at 128 ug/ml incubated for 18 hrs under aerobic condition by checkerboard titration assay relative to chloramphenicol MIC alone; format: functional; conditions: dose 128 µg/ml
[25] = system: Escherichia coli; assay: as §1, with “100” for “500”; format: functional, organism-based; conditions: time 195.0 min
[26] = system: Escherichia coli; assay: Potentiation of erythromycin-induced antibacterial activity against wild type Escherichia coli BW25113 assessed as fold reduction in erythromycin MIC at 128 ug/ml incubated for 18 hrs under aerobic condition by checkerboard titration assay relative to erythromycin MIC alone; format: functional; conditions: dose 128 µg/ml
[27] = system: Escherichia coli; assay: Antibacterial activity against AcrB deficient Escherichia coli BW25113 assessed as inhibition of bacterial growth at 256 ug/ml after 18 hrs by microtitre broth dilution assay; format: functional, organism-based; conditions: dose 256.0 µg/ml
[28] = system: Escherichia coli; assay: Potentiation of TPP-induced antibacterial activity against AcrB deficient Escherichia coli BW25113 assessed as TPP MIC at 128 ug/ml incubated for 18 hrs under aerobic condition by checkerboard titration assay (reference value: 256 ug/ml); format: functional; conditions: dose 128 µg/ml
[29] = system: Escherichia coli; assay: Potentiation of erythromycin-induced antibacterial activity against AcrB deficient Escherichia coli BW25113 assessed as erythromycin MIC at 128 ug/ml incubated for 18 hrs under aerobic condition by checkerboard titration assay (reference value: 32 ug/ml); format: functional; conditions: dose 128 µg/ml
[30] = system: Escherichia coli; assay: Potentiation of erythromycin-induced antibacterial activity against AcrB deficient Escherichia coli BW25113 assessed as erythromycin MIC at 32 ug/ml incubated for 18 hrs under aerobic condition by checkerboard titration assay (reference value: 32 ug/ml); format: functional; conditions: dose 32 µg/ml
[31] = system: Escherichia coli; assay: Potentiation of chloramphenicol-induced antibacterial activity against AcrB deficient Escherichia coli BW25113 assessed as chloramphenicol MIC at 32 ug/ml incubated for 18 hrs under aerobic condition by checkerboard titration assay (reference value: 2 ug/ml); format: functional; conditions: dose 32 µg/ml
[32] = system: Escherichia coli; assay: Potentiation of TPP-induced antibacterial activity against AcrB deficient Escherichia coli BW25113 assessed as TPP MIC at 32 ug/ml incubated for 18 hrs under aerobic condition by checkerboard titration assay (reference value: 256 ug/ml); format: functional; conditions: dose 32 µg/ml

| Structure (SMILES) | Activity [1] | Activity [2] | MIC [3] [µg/mL] | MIC [5] [µg/mL] | MIC [6] [µg/mL] | MIC [7] [µg/mL] | MIC [8] [µg/mL] | MIC [9] [µg/mL] | MIC [10] [µg/mL] | MIC [11] [µg/mL] | MIC [13] [µg/mL] | MIC [14] [µg/mL] | MIC [15] [µg/mL] | Activity [12] | Activity [23] | Activity [27] | other results |
| --- | --- | --- | --- | --- | --- | --- | --- | --- | --- | --- | --- | --- | --- | --- | --- | --- | --- |
| O=C(Nc1ccccc1C(F)(F)F)c1cc(OCc2ccccc2)c2ccccc2c1 | – | – | 16 | – | – | 8 | – | – | – | – | 128 | – | 1020 | – | – | – | MIC [16]: 1020 µg/mL; fold change (FC) [17]: 8; MIC [18]: 16 µg/mL; MIC [19]: 128 µg/mL; MIC [20]: 2 µg/mL; MIC [21]: 0.5 µg/mL |
| NC(=O)c1cc(OCCNC2CCCCC2)c2ccccc2c1 | Active | inactive | – | 128 | 8 | – | 1 | 4 | 16 | 1020 | – | 8 | – | – | Active | Active | MIC [22]: 2 µg/mL; fold change (FC) [24]: 8; Activity [25]: Active; fold change (FC) [26]: 8; MIC [28]: 256 µg/mL; MIC [29]: 16 µg/mL |
| NC(=O)c1cc(OCCNCc2ccco2)c2ccccc2c1 | Active | inactive | 16 | 256 | 16 | 16 | 1 | 16 | 128 | 1020 | 128 | 16 | 512 | – | inactive | Active | – |

More lines, main results first:

| Activity [1] | Activity [2] | MIC [3] [µg/mL] | MIC [5] [µg/mL] | MIC [6] [µg/mL] | MIC [7] [µg/mL] | MIC [8] [µg/mL] | MIC [9] [µg/mL] | MIC [10] [µg/mL] | MIC [11] [µg/mL] | MIC [13] [µg/mL] | MIC [14] [µg/mL] | MIC [15] [µg/mL] | Structure (SMILES) | Activity [12] | Activity [23] | Activity [27] | other results |
| --- | --- | --- | --- | --- | --- | --- | --- | --- | --- | --- | --- | --- | --- | --- | --- | --- | --- |
| Active | Active | 4 | 256 | 16 | 4 | 2 | 16 | 128 | 1020 | 64 | 32 | 256 | O=C(NCc1ccccc1Cl)c1cc(OCc2ccccc2)c2ccccc2c1 | Active | – | – | fold change (FC) [4]: 4 |
| inactive | inactive | 16 | – | 16 | 4 | – | 8 | 64 | 1020 | 32 | – | 1020 | CC(C)CCOc1cc(C(=O)NCCc2ccccc2)cc2ccccc12 | inactive | – | – | MIC [30]: 2 µg/mL; MIC [31]: 2 µg/mL; MIC [32]: 32 µg/mL |
